Results as given in the supplement of paper PMC11208160.

Test: recombinant UMI read abundance after kanamycin selection (control-corrected) (log10(CPM+1)); higher = more efficient recombination; extreme values may be limits of the assay; sequences stand for … in AGTGCAGAGAAAATCGGCCAGTTTTCTCTGCCTGCAGTCCGCATGCCGTGGGACCCCTTGGGTTCTAACCTGTTGCCTAGATTTATGCAGCGGACTGCCTTTCTCCCAAAGTGATAAACCGG…AGGTTGGTTTCACT; site = the 11-nt donor
Procedure, shortened: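 Each donor and donor-binding-loop pair was tracked by a 12-nt UMI on a plasmid carrying a promoterless kanamycin gene. With a second plasmid supplying a fixed target and T7-inducible IS621 bridge recombinase, the pool was plated in Escherichia coli on IPTG (0.07 mM) plus kanamycin or unselected. Sequencing of recombinant UMIs across the donor–target junction gave counts expressed as log10(CPM+1) after replicate averaging and control-derived scaling.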
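Also: IS621 bridge recombinase in Escherichia coli cells against a fixed T5 target plasmid.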

Sequence	recombinant UMI read abundance (log10)
CCAAAAGCATGGACCGGTTTTCCCGGTAATCCGTATTTGAT (site CCAAAAGCTAT)	1.34
CCAAAAGCATGGACCGGTTTTCCCGGTAATCCGTATTTGAT (site CCCAAAGCTAT)	0
CCAAAAGCATGGACCGGTTTTCCCGGTAATCCGTATTTGAT (site CCGAAAGCTAT)	0
CCAAAAGCATGGACCGGTTTTCCCGGTAATCCGTATTTGAT (site CCTAAAGCTAT)	0
CCAAAGACATGGACCGGTTTTCCCGGTAATCCGTATTTGCA (site CCAAAGACTTG)	2.26
CCAACTTCATGGACCGGTTTTCCCGGTAATCCGTATTTGAT (site CCAACTTCTAT)	0
CCAATATCATGGACCGGTTTTCCCGGTAATCCGTATTTGAG (site CCAATATCTCT)	1.21
CCAATCACATGGACCGGTTTTCCCGGTAATCCGTATTTGGG (site CCAATCACTCC)	0.336
CCAATTGCATGGACCGGTTTTCCCGGTAATCCGTATTTGAG (site CCAATTGCTCT)	0.865
CCACAGTCATGGACCGGTTTTCCCGGTAATCCGTATTTGTG (site CCACAGTCTCA)	1.93
CCACATCCATGGACCGGTTTTCCCGGTAATCCGTATTTGAC (site ACACATCCTGT)	0
CCACATCCATGGACCGGTTTTCCCGGTAATCCGTATTTGAC (site CCACATCCTGT)	0
CCACATCCATGGACCGGTTTTCCCGGTAATCCGTATTTGAC (site GCACATCCTGT)	0
CCACATCCATGGACCGGTTTTCCCGGTAATCCGTATTTGAC (site TCACATCCTGT)	0
CCACGTGCATGGACCGGTTTTCCCGGTAATCCGTATTTGAT (site CCAAGTGCTAT)	0.0041
CCACGTGCATGGACCGGTTTTCCCGGTAATCCGTATTTGAT (site CCACGTGCTAT)	0.871
CCACGTGCATGGACCGGTTTTCCCGGTAATCCGTATTTGAT (site CCAGGTGCTAT)	0.0128
CCACGTGCATGGACCGGTTTTCCCGGTAATCCGTATTTGAT (site CCATGTGCTAT)	0.0143
CCAGATGCATGGACCGGTTTTCCCGGTAATCCGTATTTGAT (site CCAGATGCTAT)	1.26

Sequence	recombinant UMI read abundance (log10)
CCAGATGCATGGACCGGTTTTCCCGGTAATCCGTATTTGAT (site CCAGCTGCTAT)	0.00516
CCAGATGCATGGACCGGTTTTCCCGGTAATCCGTATTTGAT (site CCAGGTGCTAT)	0.261
CCAGATGCATGGACCGGTTTTCCCGGTAATCCGTATTTGAT (site CCAGTTGCTAT)	0.00471
CCAGCCCCATGGACCGGTTTTCCCGGTAATCCGTATTTGCC (site CCAGCCCCTGG)	0.451
CCAGGATCATGGACCGGTTTTCCCGGTAATCCGTATTTGCA (site ACAGTATCTTG)	0
CCAGGATCATGGACCGGTTTTCCCGGTAATCCGTATTTGCA (site CCAGGATCTTG)	0.424
CCAGGTGCATGGACCGGTTTTCCCGGTAATCCGTATTTGAT (site ACAGGTGCTAT)	0.0184
CCAGGTGCATGGACCGGTTTTCCCGGTAATCCGTATTTGAT (site CAAGGTGCTAT)	0.441
CCAGGTGCATGGACCGGTTTTCCCGGTAATCCGTATTTGAT (site CCAAGTGCTAT)	1.24
CCAGGTGCATGGACCGGTTTTCCCGGTAATCCGTATTTGAT (site CCACGTGCTAT)	0.497
CCAGGTGCATGGACCGGTTTTCCCGGTAATCCGTATTTGAT (site CCAGATGCTAT)	1.74
CCAGGTGCATGGACCGGTTTTCCCGGTAATCCGTATTTGAT (site CCAGCTGCTAT)	0.00488
CCAGGTGCATGGACCGGTTTTCCCGGTAATCCGTATTTGAT (site CCAGGAGCTAT)	0.984
CCAGGTGCATGGACCGGTTTTCCCGGTAATCCGTATTTGAT (site CCAGGCGCTAT)	0.436
CCAGGTGCATGGACCGGTTTTCCCGGTAATCCGTATTTGAT (site CCAGGGGCTAT)	1.32
CCAGGTGCATGGACCGGTTTTCCCGGTAATCCGTATTTGAT (site CCAGGTACTAT)	0.835
CCAGGTGCATGGACCGGTTTTCCCGGTAATCCGTATTTGAT (site CCAGGTCCTAT)	0
CCAGGTGCATGGACCGGTTTTCCCGGTAATCCGTATTTGAT (site CCAGGTGCTAA)	0.0192
CCAGGTGCATGGACCGGTTTTCCCGGTAATCCGTATTTGAT (site CCAGGTGCTAC)	0.227

Sequence	recombinant UMI read abundance (log10)
CCAGGTGCATGGACCGGTTTTCCCGGTAATCCGTATTTGAT (site CCAGGTGCTAG)	0
CCAGGTGCATGGACCGGTTTTCCCGGTAATCCGTATTTGAT (site CCAGGTGCTAT)	1.32
CCAGGTGCATGGACCGGTTTTCCCGGTAATCCGTATTTGAT (site CCAGGTGCTCT)	0.00956
CCAGGTGCATGGACCGGTTTTCCCGGTAATCCGTATTTGAT (site CCAGGTGCTGT)	0
CCAGGTGCATGGACCGGTTTTCCCGGTAATCCGTATTTGAT (site CCAGGTGCTTT)	0.206
CCAGGTGCATGGACCGGTTTTCCCGGTAATCCGTATTTGAT (site CCAGGTTCTAT)	0.204
CCAGGTGCATGGACCGGTTTTCCCGGTAATCCGTATTTGAT (site CCAGTTGCTAT)	0.00491
CCAGGTGCATGGACCGGTTTTCCCGGTAATCCGTATTTGAT (site CCATGTGCTAT)	0.018
CCAGGTGCATGGACCGGTTTTCCCGGTAATCCGTATTTGAT (site CCCGGTGCTAT)	0.433
CCAGGTGCATGGACCGGTTTTCCCGGTAATCCGTATTTGAT (site CCGGGTGCTAT)	1.47
CCAGGTGCATGGACCGGTTTTCCCGGTAATCCGTATTTGAT (site CCTGGTGCTAT)	0
CCAGGTGCATGGACCGGTTTTCCCGGTAATCCGTATTTGAT (site CGAGGTGCTAT)	0.0036
CCAGGTGCATGGACCGGTTTTCCCGGTAATCCGTATTTGAT (site CTAGGTGCTAT)	0.629
CCAGGTGCATGGACCGGTTTTCCCGGTAATCCGTATTTGAT (site GCAGGTGCTAT)	0.00654
CCAGGTGCATGGACCGGTTTTCCCGGTAATCCGTATTTGAT (site TCAGGTGCTAT)	0.0184
CCATCATCATGGACCGGTTTTCCCGGTAATCCGTATTTGCT (site CAATCATCTAG)	0
CCATCATCATGGACCGGTTTTCCCGGTAATCCGTATTTGCT (site CCATCATCTAG)	0
CCATCATCATGGACCGGTTTTCCCGGTAATCCGTATTTGCT (site CGATCATCTAG)	0
CCATCATCATGGACCGGTTTTCCCGGTAATCCGTATTTGCT (site CTATCATCTAG)	0.0047
